From patent US9254288B2, “Susceptibility of tumors to tyrosine kinase inhibitors and treatment thereof” (THE TRANSLATIONAL GENOMICS RESEARCH INSTITUTE, priority 2012, dated 2016)

Assays:
[1] = test system: stable BaF3-FGFR2 cells, dovitinib-resistant FGFR2 mutants; assay: BaF3 cell viability, panel of dovitinib-resistant FGFR2 mutations; details: FGF10-induced proliferation
Method: (§1) pEF1a.FGFR2b.IRES.neo or the various FGFR2b mutant plasmids were introduced into BaF3 cells using the Amaxa nucleofector kit V, according to the manufacturer's instructions (Amaxa, Walkersville, Md.). Cells were selected in growth media containing 1200 μg/ml G418 and 5 ng/ml IL3 for 14 days and frozen down.
(§2) After 72 hours, cell viability was measured using the ViaLight kit (Lonza, Walkersville, Md.). Values were normalized to DMSO vehicle control wells and IC50 values generated by nonlinear regression analysis with variable slope using Prism software version 4.0c (GraphPad Software, San Diego, Calif.). […] Following 72 hours of drug treatment, cell viability was assessed using the CyQUANT Cell Proliferation Assay Kit (Life Technologies, Carlsbad, Calif.). Values were normalized to DMSO vehicle control wells and IC50 values calculated as described above. Proliferation assays were performed in triplicate on two independent days and the results averaged.

BaF3/FGFR2b wildtype = assay: BaF3 cell viability (ViaLight), wild-type FGFR2b; type: cell-based, murine; details: Mus musculus, BaF3, 72 h, read-out: IC50 value in BaF3/FGFR2b wildtype
BaF3/FGFR2b N550K = assay: BaF3 cell viability (ViaLight), FGFR2b N550K; type: cell-based, murine; details: for activity against or resistance of N550K, cell viability: BaF3 N550K
BaF3 FGFR2 V565I = assay: BaF3 cell viability, FGFR2b V565I gatekeeper mutant; type: cell-based, murine
[2] = test system: BaF3 cells expressing the E719G mutant FGFR2; assay: BaF3 cell viability, FGFR2b E719G; type: cell-based, murine; details: E719G alone vs wild-type FGFR2
EI = assay: Endometrial cancer cell viability, EI; type: cell-based; details: 72 h
EJ = assay: Endometrial cancer cell viability, EJ; type: cell-based; details: Homo sapiens, 72 h
EN1078D = assay: Endometrial cancer cell viability, EN1078D; type: cell-based; details: 72 h
[3] = test system: JHUEM-2 cells expressing FGFR2N550K; assay: JHUEM-2 cells stably expressing FGFR2N550K, cell viability; type: cell-based; details: JHUEM-2 FGFR2N550K vs control lines (FIG. 8A)
AN3CA = details: cited from earlier work
MFE296 = details: MFE296, carries N550K FGFR2 mutation; cited from earlier work
MFE280 = details: MFE280, FGFR-mutant EC line; cited from earlier work
[4] = test system: endometrial cancer cell lines; assay: Endometrial cancer cell line panel viability (CyQUANT); details: FGFR2 mutant and wild-type endometrial cancer lines, 72 hours
Method: as §2

BaF3 FGFR2 K660E = assay: BaF3 cell viability, FGFR2 K660E
Method: as §1, §2

| Structure (SMILES) | sensitivity or resistance of the FGFR2 mutation panel, cell viability [1] | IC50 (BaF3/FGFR2b wildtype) | fold difference in IC50, N550K versus wildtype (BaF3/FGFR2b N550K; BaF3/FGFR2b N550K vs wildtype) | activity against or resistance of N550K, cell viability (BaF3/FGFR2b N550K) | IC50 (BaF3/FGFR2b N550K; Mus musculus, BaF3, 72 h, read-out: IC50 value in N550K resistance cells) | activity against or resistance of V565I gatekeeper mutation, cell viability (BaF3 FGFR2 V565I) | resistance conferred by E719G mutation [2] | IC50 (EI) | IC50 (EJ) | IC50 (EN1078D) | fold increase in the IC50 [3] | growth arrest and cell death (AN3CA; FGFR-mutant EC line) | sensitivity to FGFR inhibition (AN3CA; carries N550K FGFR2 mutation) | sensitivity to FGFR inhibition (MFE296) | growth arrest and cell death (MFE280) | order of sensitivity across the cell line panel [4] | activity against K660E activating mutation, cell viability (BaF3 FGFR2 K660E) |
| --- | --- | --- | --- | --- | --- | --- | --- | --- | --- | --- | --- | --- | --- | --- | --- | --- | --- |
| CNC(=O)c1cc(Oc2ccc(NC(=O)Nc3cc(C(C)(C)C)nn3-c3ccc4ncccc4c3)c(F)c2)ccn1 [DCC2036] | most FGFR2 kinase mutations except N550K from this BaF3 resistance screen are sensitive |  |  |  |  |  |  |  |  |  |  |  |  |  |  |  |  |
| CCN(CC)CCCCNc1ncc2cc(-c3cc(OC)cc(OC)c3)c(NC(=O)NC(C)(C)C)nc2n1 [PD173074] | imparted resistance | 4.5 nM | over 170 fold | greatest resistance | 776 nM | greatest resistance | did not induce resistance | > 4000 nM | > 4000 nM | > 4000 nM | ~5 fold | induced G1 growth arrest and cell death | sensitive | sensitive | induced G1 growth arrest and cell death | least sensitive |  |
| CCN1CCN(c2ccc(Nc3cc(N(C)C(=O)Nc4c(Cl)c(OC)cc(OC)c4Cl)ncn3)cc2)CC1 [BGJ398] | all FGFR2 kinase mutations except the V565I from the mutation panel are sensitive |  |  | good activity |  |  |  |  |  |  |  |  |  |  |  |  | good activity |
